Assay [1] has as its target PIK3CA (human) (UniProt P42336). In words: Inhibition of PIK3CA Kinase Activity.
Assay [2] addresses PIK3CD (Human) (UniProt O00329). Description: Inhibition of PIK3CD Kinase Activity.

pIC50: −log10 of the molar value.

PIK3CD (Human), sequence (O00329 whole entry, looked up): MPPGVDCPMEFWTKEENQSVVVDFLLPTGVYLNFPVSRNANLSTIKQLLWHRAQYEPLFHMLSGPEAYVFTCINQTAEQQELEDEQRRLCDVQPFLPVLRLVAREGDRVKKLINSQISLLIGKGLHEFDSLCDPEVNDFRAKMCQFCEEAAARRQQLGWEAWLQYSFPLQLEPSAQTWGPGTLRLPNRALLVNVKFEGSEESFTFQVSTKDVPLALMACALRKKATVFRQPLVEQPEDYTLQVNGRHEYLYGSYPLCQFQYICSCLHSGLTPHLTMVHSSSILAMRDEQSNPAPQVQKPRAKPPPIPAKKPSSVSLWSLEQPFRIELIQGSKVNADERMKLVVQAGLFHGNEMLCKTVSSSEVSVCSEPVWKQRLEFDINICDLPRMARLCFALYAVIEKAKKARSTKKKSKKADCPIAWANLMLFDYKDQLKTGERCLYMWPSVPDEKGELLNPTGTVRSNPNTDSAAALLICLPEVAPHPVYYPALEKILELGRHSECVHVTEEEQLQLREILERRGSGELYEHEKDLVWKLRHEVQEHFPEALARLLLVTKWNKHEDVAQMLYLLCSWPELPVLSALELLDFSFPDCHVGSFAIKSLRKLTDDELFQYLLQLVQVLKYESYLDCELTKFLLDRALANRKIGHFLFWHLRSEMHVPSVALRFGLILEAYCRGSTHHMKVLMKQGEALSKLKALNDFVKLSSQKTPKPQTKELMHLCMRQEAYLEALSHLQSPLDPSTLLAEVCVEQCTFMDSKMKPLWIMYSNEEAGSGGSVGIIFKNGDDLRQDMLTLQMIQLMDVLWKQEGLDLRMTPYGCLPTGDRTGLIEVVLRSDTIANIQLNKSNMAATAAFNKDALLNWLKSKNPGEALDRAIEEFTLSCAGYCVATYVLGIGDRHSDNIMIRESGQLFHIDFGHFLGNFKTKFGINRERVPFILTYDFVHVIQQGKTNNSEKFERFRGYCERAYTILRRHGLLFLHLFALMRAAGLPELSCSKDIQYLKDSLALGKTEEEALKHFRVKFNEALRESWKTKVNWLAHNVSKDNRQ
PIK3CA (human), sequence (P42336 whole entry, looked up): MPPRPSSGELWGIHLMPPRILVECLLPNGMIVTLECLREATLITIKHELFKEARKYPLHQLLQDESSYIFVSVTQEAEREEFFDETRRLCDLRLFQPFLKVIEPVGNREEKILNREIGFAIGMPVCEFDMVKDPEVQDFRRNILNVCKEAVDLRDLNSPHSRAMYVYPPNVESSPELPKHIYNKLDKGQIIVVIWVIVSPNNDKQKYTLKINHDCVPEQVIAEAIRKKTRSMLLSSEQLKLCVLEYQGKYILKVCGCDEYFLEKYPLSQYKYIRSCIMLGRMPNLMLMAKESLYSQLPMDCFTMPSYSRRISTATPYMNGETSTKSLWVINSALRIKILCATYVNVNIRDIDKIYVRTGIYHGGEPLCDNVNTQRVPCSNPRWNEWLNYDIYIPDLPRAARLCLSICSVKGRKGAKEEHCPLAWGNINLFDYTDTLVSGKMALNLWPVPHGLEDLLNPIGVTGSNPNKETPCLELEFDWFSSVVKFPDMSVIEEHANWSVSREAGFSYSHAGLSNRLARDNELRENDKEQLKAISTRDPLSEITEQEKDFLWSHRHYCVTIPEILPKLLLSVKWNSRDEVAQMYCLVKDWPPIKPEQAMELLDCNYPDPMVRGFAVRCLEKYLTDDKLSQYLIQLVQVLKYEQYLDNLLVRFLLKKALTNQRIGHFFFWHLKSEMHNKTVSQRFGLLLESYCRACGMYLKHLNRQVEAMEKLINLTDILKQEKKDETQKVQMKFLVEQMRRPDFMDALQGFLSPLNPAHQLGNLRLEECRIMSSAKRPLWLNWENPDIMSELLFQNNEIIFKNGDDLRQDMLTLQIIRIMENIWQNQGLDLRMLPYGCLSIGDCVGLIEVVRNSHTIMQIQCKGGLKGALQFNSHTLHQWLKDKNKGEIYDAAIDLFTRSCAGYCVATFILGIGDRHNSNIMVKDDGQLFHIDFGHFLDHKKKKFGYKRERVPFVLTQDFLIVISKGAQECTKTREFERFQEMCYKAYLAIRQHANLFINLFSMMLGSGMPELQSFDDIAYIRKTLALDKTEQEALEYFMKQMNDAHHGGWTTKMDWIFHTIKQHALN

Take `CNCCN(C)c1ccc([N+](=O)[O-])cc1S(=O)(=O)NN=C(C)c1cnn2ccc(C#N)cc12`: the negative logarithm of the IC50 (pIC50) in assay [1] was 7.09; in assay [2], 6.41. Taken in the same sequence, the figures for `CC(=NNS(=O)(=O)c1cc([N+](=O)[O-])ccc1N(C)Cc1ccncc1)c1cnn2ccc(C#N)cc12` were 7.40 and 6.48. As for `CC(=NNS(=O)(=O)c1cc([N+](=O)[O-])ccc1N(C)CCN)c1cnn2ccc(C#N)cc12.CCCCCC`, the pIC50 in assay [1] was 6.47. Same read-out and setting: as for `CC(=NNS(=O)(=O)c1cc([N+](=O)[O-])ccc1N(C)CCN1CCN(S(C)(=O)=O)CC1)c1cnn2ccc(Br)cc12.CCCCCC`, the figure is 7.38; as for `CC(=NNS(=O)(=O)c1cc([N+](=O)[O-])ccc1N(C)CCCN(C)C)c1cnn2ccc(C#N)cc12`, 7.00. On the same count and under the same terms, the value for `CNCCN(C)c1ccc([N+](=O)[O-])cc1S(=O)(=O)NN=C(C)c1cnn2ccc(Br)cc12` was 7.24; that for `CC(=NNS(=O)(=O)c1cc([N+](=O)[O-])ccc1N(C)CCCN1CCOCC1)c1cnn2ccc(C#N)cc12` was 6.48. Take `CC(=NNS(=O)(=O)c1cc([N+](=O)[O-])ccc1N(C)CCc1c[nH]cn1)c1cnn2ccc(C#N)cc12.CCCCCC`: the negative-log IC50 (pIC50) was 7.48 in assay [1] and 6.77 in assay [2]. For `CC(=NNS(=O)(=O)c1cc([N+](=O)[O-])ccc1N(C)Cc1ccccn1)c1cnn2ccc(C#N)cc12`, in that order: 8.32 and 7.96. The compound `CC(=NNS(=O)(=O)c1cc([N+](=O)[O-])ccc1N(C)CCc1ccncc1)c1cnn2ccc(Br)cc12` showed a negative logarithm of the IC50 (pIC50) in assay [1] of 7.36. The same measure, in the same setting: the value for `CC(=NNS(=O)(=O)c1cc([N+](=O)[O-])ccc1N(C)CCc1ccccn1)c1cnn2ccc(C#N)cc12` was 7.64. Consider `CC(=NNS(=O)(=O)c1cc([N+](=O)[O-])ccc1N(C)CCc1ccncc1)c1cnn2ccc(C#N)cc12`, for which the negative logarithm of the IC50 (pIC50) in assay [1] is 7.31; in assay [2], 6.38. Taken in the same sequence, the figures for `CC(=NN(C)S(=O)(=O)c1cc([N+](=O)[O-])ccc1N(C)CCN(C)C)c1cnn2ccc(C#N)cc12` were 6.48 and 6.18. Compound `CC(=NNS(=O)(=O)c1cc([N+](=O)[O-])ccc1C)c1cnn2ccc(C#N)cc12` gave a pIC50 in assay [1] of 8.14.

As for `CC(=NNS(=O)(=O)c1cc([N+](=O)[O-])ccc1N(C)CCN1CCCCC1)c1cnn2ccc(C#N)cc12`, the pIC50 in assay [1] is 7.26. For the compound `Cc1ccc([N+](=O)[O-])cc1S(=O)(=O)NN=C(c1cnn2ccc(C#N)cc12)C(C)C`, the pIC50 in assay [1] is 7.41; in assay [2] it was 6.51.

Take `CCN(CC)CCN(C)c1ccc([N+](=O)[O-])cc1S(=O)(=O)NN=C(C)c1cnn2ccc(C#N)cc12`: the pIC50 in assay [1] was 6.85. The same measure, in the same setting: as for `CC(=NNS(=O)(=O)c1cc([N+](=O)[O-])ccc1N(C)CCN(C)C)c1cnc2ccc(Br)cn12`, the figure is 6.48; as for `CC(=NNS(=O)(=O)c1cc([N+](=O)[O-])ccc1N(C)CCc1c[nH]cn1)c1cnn2ccc(Br)cc12`, 6.80; as for `CC(=NN(C)S(=O)(=O)c1cc([N+](=O)[O-])ccc1N(C)CCc1ccccn1)c1cnn2ccc(C#N)cc12`, 6.32. Consider `CC(=NNS(=O)(=O)c1cc([N+](=O)[O-])ccc1C)c1cnn2ccc(Br)cc12.CCCCCC`, for which the pIC50 was 7.52 in assay [1] and 6.66 in assay [2].

The compound `CC(=NNS(=O)(=O)c1cc([N+](=O)[O-])ccc1F)c1cnc2ccc(Br)cn12` gave a pIC50 in assay [1] of 6.52. As to `CC(=NNS(=O)(=O)c1cc([N+](=O)[O-])ccc1N(C)CCc1ccccn1)c1cnn2ccc(Br)cc12`, the pIC50 in assay [1] is 7.05. On the same count and under the same terms, the value for `CC(=NNS(=O)(=O)c1cc([N+](=O)[O-])ccc1N(C)CCCN1CCOCC1)c1cnn2ccc(Br)cc12` was 6.35. Turning to `CC(=NNS(=O)(=O)c1cc([N+](=O)[O-])ccc1N(C)CCN1CCN(S(C)(=O)=O)CC1)c1cnn2ccc(C#N)cc12`, the negative-log IC50 (pIC50) in assay [1] was 7.66; in assay [2] it was 6.66.

For the compound `CCC(=NNS(=O)(=O)c1cc([N+](=O)[O-])ccc1C)c1cnn2ccc(C#N)cc12`, the negative-log IC50 (pIC50) in assay [1] is 8.01. Regarding `CC(=NNS(=O)(=O)c1cc([N+](=O)[O-])ccc1N(C)CCn1ccnc1)c1cnn2ccc(C#N)cc12`, the figures for the pIC50 in assay [1] and in assay [2] were 7.70 and 6.07, respectively. For the compound `CC(=NNS(=O)(=O)c1cc([N+](=O)[O-])ccc1N(C)CCn1ccnc1)c1cnn2ccc(Br)cc12`, the pIC50 in assay [1] was 7.04. The same measure, in the same setting: the value for `CC(=NNS(=O)(=O)c1cc([N+](=O)[O-])ccc1N(C)Cc1ccncc1)c1cnn2ccc(Br)cc12` was 6.70; that for `CCCCCC.CCN(CC)CCN(C)c1ccc([N+](=O)[O-])cc1S(=O)(=O)NN=C(C)c1cnn2ccc(Br)cc12` was 6.64. In assay [1], `CC(=NN(C)S(=O)(=O)c1cc([N+](=O)[O-])ccc1N(C)CCN1CCCCC1)c1cnn2ccc(C#N)cc12` gave a pIC50 of 6.62.

For the compound `CC(=NN(C)S(=O)(=O)c1cc([N+](=O)[O-])ccc1N(C)Cc1ccccn1)c1cnn2ccc(C#N)cc12`, the pIC50 in assay [1] is 8.28; in assay [2], 6.24. Take `CC(=NNS(=O)(=O)c1cc([N+](=O)[O-])ccc1F)c1cnn2ccc(Br)cc12`: the pIC50 in assay [1] is 6.49; in assay [2], 6.30. As for `CC(=NNS(=O)(=O)c1cc([N+](=O)[O-])ccc1N(C)Cc1cccnc1)c1cnn2ccc(Br)cc12`, the pIC50 in assay [1] is 7.28. On the same count and under the same terms, as for `CCN(CC)CCN(C)c1ccc([N+](=O)[O-])cc1S(=O)(=O)N(C)N=C(C)c1cnn2ccc(C#N)cc12`, the figure is 6.34. For the compound `CC(=NNS(=O)(=O)c1cc([N+](=O)[O-])ccc1N(C)Cc1ccccn1)c1cnn2ccc(Br)cc12`, the pIC50 in assay [1] was 8.14; in assay [2] it was 6.64. Regarding `CC(=NNS(=O)(=O)c1cc([N+](=O)[O-])ccc1N(C)CCN(C)C)c1cnn2ccc(C#N)cc12.CCCCCC`, the pIC50 in assay [1] is 7.29; in assay [2] it was 6.17.
